# Where a name gives a salt, the structure may show the parent alone. Read-outs that look alike come from different tables or passages of the source.
# Key:
# HCT-116 cell line = assay: Inhibition of cell growth, tetrazolium salt (MTT) assay; assay type: cell-based; settings: Homo sapiens, HCT-116, 120 h, MTT, three to five days, read-out: HCT-116 IC50
# Method in brief: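 McCoy's 5A cultures; 4 h pre-incubation; compound dilutions in 0.5% v/v DMSO; 3–5 d, 37° C, 5% CO2; MTT 0.2 mg/mL final, 4 h; formazan dissolved in DMSO, A540; vs 0.5% DMSO vehicle.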
# [1] = target: human CDK4 and genetically truncated (1-264) cyclin D3 (Homo sapiens, UniProt P11802); assay: Inhibition of CDK4/Cyclin D Retinoblastoma Kinase Activity; assay type: biochemical; settings: apparent Ki, CDK4/truncated cyclin D3, Rb fragment substrate, 25 μM ATP
# human CDK4 and genetically truncated (1-264) cyclin D3, sequence (P11802 whole entry, the tested form may be a part): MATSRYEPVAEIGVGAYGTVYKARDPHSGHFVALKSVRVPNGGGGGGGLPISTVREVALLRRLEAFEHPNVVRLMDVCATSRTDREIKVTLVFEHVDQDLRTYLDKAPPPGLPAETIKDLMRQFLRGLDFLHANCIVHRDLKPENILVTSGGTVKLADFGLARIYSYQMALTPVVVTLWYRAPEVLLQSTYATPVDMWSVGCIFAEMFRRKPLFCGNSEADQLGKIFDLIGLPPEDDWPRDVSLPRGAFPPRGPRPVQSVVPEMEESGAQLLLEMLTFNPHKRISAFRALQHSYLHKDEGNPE
# human CDK4 and genetically truncated (1-264) cyclin D3, sequence (P30281 1-264 partner): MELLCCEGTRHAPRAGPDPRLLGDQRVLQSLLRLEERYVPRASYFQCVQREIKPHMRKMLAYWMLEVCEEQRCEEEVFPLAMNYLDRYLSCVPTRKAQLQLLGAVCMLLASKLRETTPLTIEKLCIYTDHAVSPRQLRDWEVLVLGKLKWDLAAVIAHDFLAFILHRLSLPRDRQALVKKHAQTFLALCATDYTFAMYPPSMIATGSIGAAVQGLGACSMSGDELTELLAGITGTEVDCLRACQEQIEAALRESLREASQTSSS
# Method in brief: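 Human CDK4/truncated cyclin D3 (1-264) complex from baculovirus-infected insect cells, 5 nM, phosphorylating Rb fragment (residues 386-928, His-tagged) with 25 μM [32/33P]ATP in HEPES pH 7.4, MgCl2, 2% DMSO at 30° C. for 20 min (60 min for tight binders). Filter-captured radioactivity by phosphorimager; apparent Ki from competitive or tight-binding fits.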
# CDK2/Cyclin A = CDK2/Cyclin A (Homo sapiens, UniProt P24941); assay: Inhibition of CDK2/Cyclin A Retinoblastoma Kinase Activity; assay type: biochemical; settings: apparent Ki, CDK2/proteolyzed cyclin A, Rb fragment substrate, 25 μM ATP
# Method in brief: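 Baculovirus-expressed CDK2 complexed with proteolyzed cyclin A (10 or 19 nM), Rb fragment substrate, 25 μM [32P/33P]ATP, HEPES pH 7.4, 30 °C for 60 or 75 min under initial-rate conditions. Filter capture and phosphorimager readout; apparent Ki fitted to competitive or tight-binding competitive inhibition.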
IC50 (HCT-116 cell line; first HCT-116 column (c4)) [nM],IC50 (HCT-116 cell line; second HCT-116 column (c5)) [nM],Ki [1] [nM],Ki (CDK2/Cyclin A) [nM],SMILES
160,290,3,< 1,"COc1ccc(S(=O)(=O)N2CCC(Nc3nc(N)c(C(=O)c4c(F)cccc4F)s3)CC2)cc1OC [Example F8, 1-{4-Amino-2-[1-(3,4-dimethoxy-benzenesulfonyl)-piperidin-4-ylamino]-thiazol-5-yl}-1-(2,6-difluoro-phenyl)-methanone]"
140,250,3.6,2,"N#Cc1ccccc1S(=O)(=O)N1CCC(Nc2nc(N)c(C(=O)c3c(F)cccc3F)s2)CC1 [Example F9, 2-{4-[4-Amino-5-(2,6-difluoro-benzoyl)-thiazol-2-ylamino]-piperidine-1-sulfonyl}-benzonitrile]"
280,< 5000,5.6,7.9,"COC(=O)c1sccc1S(=O)(=O)N1CCC(Nc2nc(N)c(C(=O)c3c(F)cccc3F)s2)CC1 [Example F10, 3-{4-[4-Amino-5-(2,6-difluoro-benzoyl)-thiazol-2-ylamino]-piperidine-1-sulfonyl}-thiophene-2-carboxylic acid methyl ester]"
180,450,1.1,1.6,"CC(C)S(=O)(=O)N1CCC(Nc2nc(N)c(C(=O)c3c(F)cccc3F)s2)CC1 [Example F11, 1-{4-Amino-2-[1-(propane-2-sulfonyl)-piperidin-4-ylamino]-thiazol-5-yl}-1-(2,6-difluoro-phenyl)-methanone]"
190,500,1.3,0.37,"CS(=O)(=O)c1ccc(S(=O)(=O)N2CCC(Nc3nc(N)c(C(=O)c4c(F)cccc4F)s3)CC2)cc1 [Example F12, 1-{4-Amino-2-[1-(4-methanesulfonyl-benzenesulfonyl)-piperidin-4-ylamino]-thiazol-5-yl}-1-(2,6-difluoro-phenyl)-methanone]"
610,2600,5.8,8.7,"Nc1nc(NC2CCN(S(=O)(=O)c3cc(Cl)sc3Cl)CC2)sc1C(=O)c1c(F)cccc1F [Example F13, 1-{4-Amino-2-[1-(2,5-dichloro-thiophene-3-sulfonyl)-piperidin-4-ylamino]-thiazol-5-yl}-1-(2,6-difluoro-phenyl)-methanone]"
< 5000,< 5000,14,2,"Nc1nc(NC2CCN(S(=O)(=O)c3ccc(C(=O)O)cc3)CC2)sc1C(=O)c1c(F)cccc1F [Example F14, 4-{4-[4-Amino-5-(2,6-difluoro-benzoyl)-thiazol-2-ylamino]-piperidine-1-sulfonyl}-benzoic Acid]"
410,1200,3.4,2.8,"Cc1ccc(S(=O)(=O)N2CCC(Nc3nc(N)c(C(=O)c4c(F)cccc4F)s3)CC2)cc1 [Example F15, {4-Amino-2-[1-(toluene-4-sulfonyl)-piperidin-4-ylamino]-thiazol-5-yl}-(2,6-difluoro-phenyl)-methanone]"
70,230,1.4,< 1,"Nc1nc(NC2CCN(S(=O)(=O)c3ccc(F)cc3)CC2)sc1C(=O)c1c(F)cccc1F [Example F17, 1-{4-Amino-2-[1-(4-fluoro-benzenesulfonyl)-piperidin-4-ylamino]-thiazol-5-yl}1-(2,6-difluoro-phenyl)-methanone]"
300,500,0.98,< 1,"N#Cc1ccc(S(=O)(=O)N2CCC(Nc3nc(N)c(C(=O)c4c(F)cccc4F)s3)CC2)cc1 [Example F18, 4-{4-[4-Amino-5-(2,6-difluoro-benzoyl)-thiazol-2-ylamino]-piperidine-1-sulfonyl}benzonitrile]"
48,200,1.7,3.2,"CN(C)c1ccc(S(=O)(=O)N2CCC(Nc3nc(N)c(C(=O)c4c(F)cccc4F)s3)CC2)cn1 [Example F19, 1-{4-Amino-2-[1-(6-dimethylamino-pyridine-3-sulfonyl)-piperidin-4-ylamino]-thiazol-5-yl}-1-(2,6-difluoro-phenyl)-methanone]"
170,1300,1.3,1.4,"Nc1nc(NC2CCN(S(=O)(=O)c3ccc(N4CCOCC4)nc3)CC2)sc1C(=O)c1c(F)cccc1F [Example F20, 1-{4-Amino-2-[1-(6-morpholin-4-yl-pyridine-3-sulfonyl)-piperidin-4-ylamino]-thiazol-5-yl}-1-(2,6-difluoro-phenyl)-methanone Hydrochloride]"
80,230,1.2,0.84,"COc1ccc(S(=O)(=O)N2CCC(Nc3nc(N)c(C(=O)c4c(F)cccc4F)s3)CC2)cn1 [Example F22, 1-{4-Amino-2-[1-(6-methoxy-pyridine-3-sulfonyl)-piperidin4-ylamino]-thiazol-5-yl}-1-(2,6-difluoro-phenyl)-methanone]"
130,300,4.8,2.8,"Nc1nc(NC2CCN(S(=O)(=O)c3cccnc3)CC2)sc1C(=O)c1c(F)cccc1F [Example F23, 1-{4-Amino-2-[1-(pyridine-3-sulfonyl)-piperidin-4-ylamino]-thiazol-5-yl}-1-(2,6-difluoro-phenyl)-methanone]"
590,1600,0.34,< 1,"CN1CCCC1c1ccc(S(=O)(=O)N2CCC(Nc3nc(N)c(C(=O)c4c(F)cccc4F)s3)CC2)cc1 (stereo not shown) [Example F24, 1-[4-Amino-2-{1-[4-(1-methyl-pyrrolidin-2-y)-benzenesulfonyl]-piperidin-4-ylamino}-thiazol-5-yl)-1-(2,6-difluoro-phenyl)-methanone Dihydrochloride]"
80,300,0.93,1.5,"CN1CCC(c2ccc(S(=O)(=O)N3CCC(Nc4nc(N)c(C(=O)c5c(F)cccc5F)s4)CC3)cc2)C1 (stereo not shown) [Example F25, 1-(4-Amino-2-[1-[4-(1-methyl-pyrrolidin-3-yl)-benzenesulfonyl]-piperidin-4-ylamino]-thiazol-5-yl}-1-(2,6-difluoro-phenyl)-methanone Dihydrochloride]"
280,650,2.2,15,"CN(C)CCS(=O)(=O)N1CCC(Nc2nc(N)c(C(=O)c3c(F)cccc3F)s2)CC1 [Example F26, {4-Amino-2-[1-(2-dimethylamino-ethanesulfonyl)-piperidin-4-ylamino]-thiazol-5-yl}-(2,6-difluoro-phenyl)-methanone]"
1000,5000,6.8,32,"Nc1nc(NC2CCN(S(=O)(=O)CCc3ccncc3)CC2)sc1C(=O)c1c(F)cccc1F [Example F27, 1-{4-Amino-2-[1-(2-pyridin-4-yl-ethanesulfonyl)-piperidin-4-ylamino]-thiazol-5-yl}-1-(2,6-difluoro-phenyl)-methanone]"
650,1300,8.1,3.6,"Nc1nc(NC2CCN(S(=O)(=O)CCc3ccccn3)CC2)sc1C(=O)c1c(F)cccc1F [Example F28, 1-{4-Amino-2-[1-(2-pyridin-2-yl-ethanesulfonyl)-piperidin-4-ylamino]-thiazol-5-yl}-1-(2,6-difluoro-phenyl)-methanone]"
170,1700,0.32,0.25,"Nc1nc(NC2CCN(S(=O)(=O)c3ccc(-c4c[nH]cn4)cc3)CC2)sc1C(=O)c1c(F)cccc1F [Example F30, 1-(4-Amino-2-{1-[4-(1H-imidazol-4-y)-benzenesulfonyl]-piperidin-4-ylamino}-thiazol-5-yl)-1-(2,6-difluoro-phenyl)-methanone Trifluoroacetic Acid Salt]"
80,300,0.55,< 1,"Cn1cnc(-c2ccc(S(=O)(=O)N3CCC(Nc4nc(N)c(C(=O)c5c(F)cccc5F)s4)CC3)cc2)c1 [Example F31, 1-(4-Amino-2-{1-[4-(1-methyl-1H-imidazol-4-yl)-benzenesulfonyl]-piperidin-4-ylamino}-thiazol-5-yl)-1-(2,6-difluoro-phenyl)-methanone Trifluoroacetic Acid Salt]"
110,380,0.9,0.4,"Cn1cncc1-c1ccc(S(=O)(=O)N2CCC(Nc3nc(N)c(C(=O)c4c(F)cccc4F)s3)CC2)cc1 [Example F32, 1-(4-Amino-2-{1-[4-(3-methyl-3H-imidazol-4-yl)-benzenesulfonyl]-piperidin-4-ylamino}-thiazol-5-yl)-1-(2,6-difluoro-phenyl)-methanone Trifluoroacetic Acid Salt]"

# From patent US20050101595A1, “N-containing cycloalkyl-substituted amino-thiazole derivatives and pharmaceutical compositions for inhibiting cell proliferation and methods for their use” (PFIZER INC., priority 2003, published 2005)
